In patent US20240246942A1, “KINASE INHIBITORS FOR THE TREATMENT OF NEURODEGENERATIVE DISEASES” (priority 2020, published 2024):

Columns and labels:
Test in all cases: biochemical
[1] = biological target: T1, panel of 374 wild-type kinases (Homo sapiens, UniProt Q13164); conditions: read-out: % Enzyme Activity (relative to DMSO controls), ERK5/MAPK7
T1 construct: purchased Reaction Biology Corporation

[2] = biological target: T2, panel of 374 wild-type kinases (Homo sapiens, UniProt P36888); conditions: read-out: % Enzyme Activity (relative to DMSO controls), FLT3
T2 construct: purchased Reaction Biology Corporation
T2 sequence (P36888 27-993): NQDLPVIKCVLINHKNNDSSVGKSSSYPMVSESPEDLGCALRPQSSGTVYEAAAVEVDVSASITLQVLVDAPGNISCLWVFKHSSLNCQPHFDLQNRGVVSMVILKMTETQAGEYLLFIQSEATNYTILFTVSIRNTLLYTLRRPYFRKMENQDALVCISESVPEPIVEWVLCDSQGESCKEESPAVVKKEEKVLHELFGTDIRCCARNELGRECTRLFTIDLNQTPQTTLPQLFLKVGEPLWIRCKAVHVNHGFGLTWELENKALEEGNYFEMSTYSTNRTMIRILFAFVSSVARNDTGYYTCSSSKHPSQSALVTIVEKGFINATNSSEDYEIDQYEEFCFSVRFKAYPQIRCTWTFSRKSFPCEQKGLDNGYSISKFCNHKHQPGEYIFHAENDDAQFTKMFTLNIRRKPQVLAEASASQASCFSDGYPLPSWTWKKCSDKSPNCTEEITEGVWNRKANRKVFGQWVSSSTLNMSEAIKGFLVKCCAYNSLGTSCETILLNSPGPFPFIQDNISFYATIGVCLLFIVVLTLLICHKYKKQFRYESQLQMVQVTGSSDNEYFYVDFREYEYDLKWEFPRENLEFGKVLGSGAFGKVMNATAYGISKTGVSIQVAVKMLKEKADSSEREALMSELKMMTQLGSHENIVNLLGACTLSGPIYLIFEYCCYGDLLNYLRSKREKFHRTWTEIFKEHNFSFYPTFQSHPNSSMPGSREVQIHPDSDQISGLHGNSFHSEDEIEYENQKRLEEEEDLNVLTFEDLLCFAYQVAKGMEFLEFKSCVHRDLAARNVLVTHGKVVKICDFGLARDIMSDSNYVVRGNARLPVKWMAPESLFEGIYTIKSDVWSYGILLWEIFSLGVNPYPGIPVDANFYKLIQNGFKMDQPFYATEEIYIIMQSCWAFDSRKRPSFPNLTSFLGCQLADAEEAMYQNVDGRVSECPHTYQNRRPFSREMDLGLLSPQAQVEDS

[3] = biological target: T3, panel of 374 wild-type kinases (Homo sapiens, UniProt Q8N568); conditions: read-out: % Enzyme Activity (relative to DMSO controls), DCAMKL2
T3 construct: purchased Reaction Biology Corporation
T3 sequence (Q8N568 1-766): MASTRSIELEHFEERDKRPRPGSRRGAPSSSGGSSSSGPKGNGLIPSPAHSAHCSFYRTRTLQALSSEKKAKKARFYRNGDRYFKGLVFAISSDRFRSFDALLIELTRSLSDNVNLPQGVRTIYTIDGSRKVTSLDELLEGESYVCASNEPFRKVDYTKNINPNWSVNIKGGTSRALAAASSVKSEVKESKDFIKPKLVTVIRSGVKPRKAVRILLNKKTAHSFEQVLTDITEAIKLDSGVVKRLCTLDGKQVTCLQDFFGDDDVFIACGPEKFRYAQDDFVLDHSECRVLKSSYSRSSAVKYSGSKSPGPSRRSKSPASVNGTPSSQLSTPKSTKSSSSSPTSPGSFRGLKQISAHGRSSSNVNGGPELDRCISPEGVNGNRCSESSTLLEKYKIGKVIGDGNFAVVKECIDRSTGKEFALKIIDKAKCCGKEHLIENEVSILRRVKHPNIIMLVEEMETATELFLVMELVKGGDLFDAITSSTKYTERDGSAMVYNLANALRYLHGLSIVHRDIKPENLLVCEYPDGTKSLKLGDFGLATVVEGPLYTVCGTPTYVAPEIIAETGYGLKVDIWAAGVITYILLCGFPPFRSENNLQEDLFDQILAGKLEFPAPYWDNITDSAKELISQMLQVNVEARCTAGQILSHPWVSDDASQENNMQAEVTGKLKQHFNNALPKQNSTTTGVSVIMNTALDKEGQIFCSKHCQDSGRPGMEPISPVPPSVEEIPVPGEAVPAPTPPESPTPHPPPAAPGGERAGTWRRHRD

[4] = biological target: T4, panel of 374 wild-type kinases (Homo sapiens, UniProt P54753); conditions: read-out: % Enzyme Activity (relative to DMSO controls), EPHB3
T4 construct: purchased Reaction Biology Corporation
T4 sequence (P54753 34-998): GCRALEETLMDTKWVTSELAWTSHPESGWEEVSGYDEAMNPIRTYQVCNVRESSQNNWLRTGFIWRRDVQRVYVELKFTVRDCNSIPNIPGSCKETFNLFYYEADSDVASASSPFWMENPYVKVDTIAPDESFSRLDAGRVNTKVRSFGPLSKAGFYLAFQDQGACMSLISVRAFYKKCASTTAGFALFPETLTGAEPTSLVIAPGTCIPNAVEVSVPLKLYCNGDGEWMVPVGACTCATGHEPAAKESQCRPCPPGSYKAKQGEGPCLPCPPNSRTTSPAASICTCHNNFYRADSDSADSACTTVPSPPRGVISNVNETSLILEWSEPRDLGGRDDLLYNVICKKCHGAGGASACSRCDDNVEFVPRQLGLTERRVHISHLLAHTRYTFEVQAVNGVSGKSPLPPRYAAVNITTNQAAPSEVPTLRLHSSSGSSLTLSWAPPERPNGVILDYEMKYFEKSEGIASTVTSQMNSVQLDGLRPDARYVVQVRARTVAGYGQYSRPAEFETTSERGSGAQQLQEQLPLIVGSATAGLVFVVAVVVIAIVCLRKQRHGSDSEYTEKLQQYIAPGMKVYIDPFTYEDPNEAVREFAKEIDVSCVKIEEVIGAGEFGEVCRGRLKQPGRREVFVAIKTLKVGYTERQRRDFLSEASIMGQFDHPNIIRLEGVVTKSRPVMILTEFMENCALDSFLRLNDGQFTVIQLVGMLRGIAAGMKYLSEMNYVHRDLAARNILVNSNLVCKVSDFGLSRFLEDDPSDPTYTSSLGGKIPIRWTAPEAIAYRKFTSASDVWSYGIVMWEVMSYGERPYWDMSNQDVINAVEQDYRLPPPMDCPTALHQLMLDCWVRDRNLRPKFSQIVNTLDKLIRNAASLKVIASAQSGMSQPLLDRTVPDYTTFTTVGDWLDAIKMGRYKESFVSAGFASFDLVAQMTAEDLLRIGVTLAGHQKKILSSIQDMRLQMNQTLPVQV

T1 sequence (Q13164 whole entry): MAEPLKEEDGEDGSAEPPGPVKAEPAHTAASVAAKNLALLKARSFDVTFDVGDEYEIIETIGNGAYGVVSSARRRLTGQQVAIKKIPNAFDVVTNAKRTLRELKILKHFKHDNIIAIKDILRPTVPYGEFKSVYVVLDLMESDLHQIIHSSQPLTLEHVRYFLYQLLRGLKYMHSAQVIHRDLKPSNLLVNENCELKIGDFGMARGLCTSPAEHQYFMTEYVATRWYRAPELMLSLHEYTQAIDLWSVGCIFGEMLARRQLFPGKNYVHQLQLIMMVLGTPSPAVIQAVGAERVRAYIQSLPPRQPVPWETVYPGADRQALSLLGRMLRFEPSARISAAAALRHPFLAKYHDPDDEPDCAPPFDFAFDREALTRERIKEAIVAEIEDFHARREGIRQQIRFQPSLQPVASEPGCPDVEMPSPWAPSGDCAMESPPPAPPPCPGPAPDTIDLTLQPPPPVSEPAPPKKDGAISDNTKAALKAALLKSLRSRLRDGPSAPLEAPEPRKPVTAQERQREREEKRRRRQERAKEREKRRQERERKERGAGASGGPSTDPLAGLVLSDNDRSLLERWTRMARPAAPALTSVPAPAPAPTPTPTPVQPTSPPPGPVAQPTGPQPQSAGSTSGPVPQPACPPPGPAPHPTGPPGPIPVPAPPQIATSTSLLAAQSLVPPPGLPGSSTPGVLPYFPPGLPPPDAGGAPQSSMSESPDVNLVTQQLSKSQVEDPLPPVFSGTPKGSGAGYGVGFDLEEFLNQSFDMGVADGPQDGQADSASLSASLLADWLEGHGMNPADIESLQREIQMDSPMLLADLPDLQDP

SMILES	remaining activity at 5 µM [1] [%]	remaining activity at 5 µM [2] [%]	remaining activity at 5 µM [3] [%]	remaining activity at 5 µM [4] [%]	remaining activity at 10 µM ([1]; 10 uM) [%]	remaining activity at 10 µM ([2]; 10 uM) [%]	remaining activity at 10 µM ([3]; 10 uM) [%]	remaining activity at 10 µM ([4]; 10 uM) [%]
O=C(Nc1cnn(-c2csc(C(=O)NC3COC3)c2)c1)Nc1c(F)cccc1Cl [Compound 25, 4-(4-(3-(2-chloro-6-fluorophenyl)ureido)-1H-pyrazol-1-yl)-N-(oxetan-3-yl)thiophene-2-carboxamide]	75.9	99.2	94.3	96.5				
O=C(Nc1cnn(-c2csc(C(=O)NC3COC3)c2)c1)Nc1ccccc1Cl [Compound 17, 4-(4-(3-(2-chlorophenyl)ureido)-1H-pyrazol-1-yl)-N-(oxetan-3-yl)thiophene-2-carboxamide]	119	89.7	99.9	95.6				
Cc1sc(C(=O)NC2COC2)cc1-n1cc(NC(=O)Nc2c(F)cccc2Cl)cn1 [Compound 27, 4-(4-(3-(2-chloro-6-fluorophenyl)ureido)-1H-pyrazol-1-yl)-5-methyl-N-(oxetan-3-yl)thiophene-2-carboxamide]					95.7	69.1	107	97.2
